PMC9421653 (Journal of Medicinal Chemistry, 2022)

The compounds below were run against T1, human GPR84 (Homo sapiens, UniProt P04899+Q9NQS5) (assay: biochemical). Settings: [35S]GTPγS assay; negative log of the IC50 in molar; mean ± SEM.
T1 construct: expressed in transfected cells; host or cells: Flp-In T-REx 293 cells, doxycycline-induced; membrane preparations
Assay type: biochemical

T1 sequence (Q9NQS5+P04899 fused): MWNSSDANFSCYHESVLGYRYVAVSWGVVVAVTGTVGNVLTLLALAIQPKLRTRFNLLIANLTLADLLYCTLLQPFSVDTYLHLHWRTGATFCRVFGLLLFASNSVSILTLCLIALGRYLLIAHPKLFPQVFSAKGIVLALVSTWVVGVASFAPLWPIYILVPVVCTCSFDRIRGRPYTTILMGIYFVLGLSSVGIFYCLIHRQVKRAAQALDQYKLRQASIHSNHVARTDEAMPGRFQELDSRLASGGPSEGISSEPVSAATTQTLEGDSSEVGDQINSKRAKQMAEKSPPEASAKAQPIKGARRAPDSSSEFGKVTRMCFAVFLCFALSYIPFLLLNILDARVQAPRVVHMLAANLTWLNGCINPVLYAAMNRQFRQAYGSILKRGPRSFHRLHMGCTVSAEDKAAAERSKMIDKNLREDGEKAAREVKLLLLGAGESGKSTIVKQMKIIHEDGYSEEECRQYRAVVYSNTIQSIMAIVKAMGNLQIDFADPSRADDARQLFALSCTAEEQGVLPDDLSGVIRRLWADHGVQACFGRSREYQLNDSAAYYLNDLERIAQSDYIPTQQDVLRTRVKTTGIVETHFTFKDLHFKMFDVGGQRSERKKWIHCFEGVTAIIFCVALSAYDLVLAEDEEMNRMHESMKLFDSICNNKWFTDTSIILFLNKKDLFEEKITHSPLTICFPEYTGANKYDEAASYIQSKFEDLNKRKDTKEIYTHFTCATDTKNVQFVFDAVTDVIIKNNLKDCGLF

**Q.** Which “GTPγS (pIC50)” value does the source give for `Cc1ccc2c(Cc3nnc(-c4ccccc4)c(-c4ccccc4)n3)c[nH]c2c1` [Compound 16, 3-((5,6-Diphenyl-1,2,4-triazin-3-yl)methyl)-6-methyl-1H-indole] here?
**A.** <4.70

**Q.** With `CS(=O)(=O)NCc1ccc(-c2nnc(Cc3c[nH]c4ccccc34)nc2-c2ccccc2)cc1` [Compound 48, N-(4-(3-((1H-Indol-3-yl)methyl)-5-phenyl-1,2,4-triazin-6-yl)benzyl)methanesulfonamide] as the compound, how does the “GTPγS (pIC50)” value read?
**A.** 7.61 ± 0.06

**Q.** For `Fc1ccc(-c2nnc(Cc3c[nH]c4ccccc34)nc2-c2ccc(F)cc2)cc1` [Compound 5, 3-((5,6-Bis(4-fluorophenyl)-1,2,4-triazin-3-yl)methyl)-1H-indole], which “GTPγS (pIC50)” value is on record?
**A.** 7.81 ± 0.04

**Q.** `COc1ccc(-c2nnc(Cc3c[nH]c4ccc(F)cc34)nc2-c2ccc(OC)cc2)cc1` [Compound 12, 3-((5,6-Bis(4-methoxyphenyl)-1,2,4-triazin-3-yl)methyl)-5-fluoro-1H-indole] was tested. Which “GTPγS (pIC50)” value did it give?
**A.** 6.92 ± 0.07

**Q.** With `O=C(NCCO)c1ccc(-c2nnc(Cc3c[nH]c4cnccc34)nc2-c2ccccc2)cc1` [Compound 70, 4-(3-((1H-Pyrrolo[2,3-c]pyridin-3-yl)methyl)-5-phenyl-1,2,4-triazin-6-yl)-N-(2-hydroxyethyl)benzamide] as the compound, how does the “GTPγS (pIC50)” value read?
**A.** 7.04 ± 0.07

**Q.** Which “GTPγS (pIC50)” value does the source give for `CNC(=O)c1ccc(-c2nnc(Cc3c[nH]c4ccccc34)nc2-c2ccccc2)cc1` [Compound 73, 4-(3-((1H-Indol-3-yl)methyl)-5-phenyl-1,2,4-triazin-6-yl)-N-methylbenzamide] here?
**A.** 7.18 ± 0.09

**Q.** `FC(F)(F)Oc1ccccc1-c1cnc(Cc2c[nH]c3ccccc23)nn1` [Compound 27, 3-((6-(2-(Trifluoromethoxy)phenyl)-1,2,4-triazin-3-yl)methyl)-1H-indole] was tested. Which “GTPγS (pIC50)” value did it give?
**A.** 5.59 ± 0.13

**Q.** With `c1ccc(-c2nnc(Cc3cnc4ccccn34)nc2-c2ccccc2)cc1` [Compound 20, 3-((5,6-Diphenyl-1,2,4-triazin-3-yl)methyl)imidazo[1,2-a]pyridine] as the compound, how does the “GTPγS (pIC50)” value read?
**A.** 5.44 ± 0.09

**Q.** For `O=C(O)c1cccc(-c2nc(Cc3c[nH]c4ccccc34)nnc2-c2ccccc2)c1` [Compound 55, 3-(3-((1H-Indol-3-yl)methyl)-6-phenyl-1,2,4-triazin-5-yl)benzoic Acid], which “GTPγS (pIC50)” value is on record?
**A.** 4.99 ± 0.32

**Q.** Which “GTPγS (pIC50)” value does the source give for `Cc1cc(Cc2nnc(-c3ccccc3)c(-c3ccccc3)n2)n[nH]1` [Compound 23, 3-((5-Methyl-1H-pyrazol-3-yl)methyl)-5,6-diphenyl-1,2,4-triazine] here?
**A.** 4.97 ± 0.23

**Q.** With `c1ccc(-c2nc(Cc3c[nH]c4cnccc34)nnc2-c2ccnnc2)cc1` [Compound 62, 3-((5-Phenyl-6-(pyridazin-4-yl)-1,2,4-triazin-3-yl)methyl)-1H-pyrrolo[2,3-c]pyridine] as the compound, how does the “GTPγS (pIC50)” value read?
**A.** 6.21 ± 0.04

**Q.** With `CNC(=O)c1ccc(-c2nc(Cc3c[nH]c4cnccc34)nnc2-c2ccccc2)cc1` [Compound 67, 4-(3-((1H-Pyrrolo[2,3-c]pyridin-3-yl)methyl)-6-phenyl-1,2,4-triazin-5-yl)-N-methylbenzamide] as the compound, how does the “GTPγS (pIC50)” value read?
**A.** 6.48 ± 0.04

**Q.** Which “GTPγS (pIC50)” value does the source give for `CNC(=O)c1ccc(-c2nc(Cc3c[nH]c4ccncc34)nnc2-c2ccccc2)cc1` [Compound 71, 4-(3-((1H-Pyrrolo[3,2-c]pyridin-3-yl)methyl)-6-phenyl-1,2,4-triazin-5-yl)-N-methylbenzamide] here?
**A.** 5.64 ± 0.05

**Q.** For `Cc1cc(Nc2nnc(-c3ccccc3)c(-c3ccccc3)n2)n[nH]1` [Compound 25, N-(5-Methyl-1H-pyrazol-3-yl)-5,6-diphenyl-1,2,4-triazin-3-amine], which “GTPγS (pIC50)” value is on record?
**A.** <4.70

**Q.** Which “GTPγS (pIC50)” value does the source give for `CN1CCN(C(=O)c2ccc(-c3nnc(Cc4c[nH]c5ccccc45)nc3-c3ccccc3)cc2)CC1` [Compound 77, (4-(3-((1H-Indol-3-yl)methyl)-5-phenyl-1,2,4-triazin-6-yl)phenyl)(4-methylpiperazin-1-yl)methanone] here?
**A.** 5.95 ± 0.10

**Q.** “3-((5-Phenyl-6-(pyrimidin-2-yl)-1,2,4-triazin-3-yl)methyl)-1H-indole or 3-((6-phenyl-5-(pyrimidin-2-yl)-1,2,4-triazin-3-yl)methyl)-1H-indole [Compound 32]” was tested. Which “GTPγS (pIC50)” value did it give?
**A.** 6.58 ± 0.08

**Q.** How did the “GTPγS (pIC50)” value turn out when `NC(=O)CNC(=O)c1ccc(-c2nnc(Cc3c[nH]c4ccccc34)nc2-c2ccccc2)cc1` [Compound 81, 4-(3-((1H-Indol-3-yl)methyl)-5-phenyl-1,2,4-triazin-6-yl)-N-(2-amino-2-oxoethyl)benzamide] was run?
**A.** 5.80 ± 0.11

**Q.** Which “GTPγS (pIC50)” value does the source give for `CC(=O)NCc1ccc(-c2nnc(Cc3c[nH]c4ccccc34)nc2-c2ccccc2)cc1` [Compound 46, N-(4-(3-((1H-Indol-3-yl)methyl)-5-phenyl-1,2,4-triazin-6-yl)benzyl)acetamide] here?
**A.** 7.98 ± 0.06

**Q.** How did the “GTPγS (pIC50)” value turn out when `COc1ccc(-c2nnc(Cc3cn(C)c4ccccc34)nc2-c2ccc(OC)cc2)cc1` [Compound 13, 3-((5,6-Bis(4-methoxyphenyl)-1,2,4-triazin-3-yl)methyl)-1-methyl-1H-indole] was run?
**A.** <4.70

**Q.** Which “GTPγS (pIC50)” value does the source give for `COC(=O)c1ccc(-c2nnc(Cc3c[nH]c4ccccc34)nc2-c2ccc(C(=O)OC)cc2)cc1` [Compound 10, Methyl 4-[3-(1H-Indol-3-ylmethyl)-6-(4-methoxycarbonylphenyl)-1,2,4-triazin-5-yl]benzoate] here?
**A.** 6.67 ± 0.08

**Q.** With `c1ccc(-c2nnc(NCc3cccnc3)nc2-c2ccccc2)cc1` [Compound 24, 5,6-Diphenyl-N-(pyridin-3-ylmethyl)-1,2,4-triazin-3-amine] as the compound, how does the “GTPγS (pIC50)” value read?
**A.** 5.47 ± 0.05

**Q.** Which “GTPγS (pIC50)” value does the source give for `CN(C)Cc1ccc(-c2nc(Cc3c[nH]c4ccccc34)nnc2-c2ccccc2)cc1` [Compound 43, 1-(4-(3-((1H-Indol-3-yl)methyl)-6-phenyl-1,2,4-triazin-5-yl)phenyl)-N,N-dimethylmethanamine] here?
**A.** 6.20 ± 0.05

**Q.** Which “GTPγS (pIC50)” value does the source give for `Brc1ccc(-c2nnc(Cc3c[nH]c4ccccc34)nc2-c2ccc(Br)cc2)cc1` [Compound 7, 3-((5,6-Bis(4-bromophenyl)-1,2,4-triazin-3-yl)methyl)-1H-indole] here?
**A.** 7.60 ± 0.02

**Q.** For `FC(F)(F)Oc1ccccc1-c1cnnc(Cc2c[nH]c3ccccc23)n1` [Compound 26, 3-((5-(2-(Trifluoromethoxy)phenyl)-1,2,4-triazin-3-yl)methyl)-1H-indole], which “GTPγS (pIC50)” value is on record?
**A.** <4.70

**Q.** How did the “GTPγS (pIC50)” value turn out when `CS(=O)(=O)c1ccc(-c2nnc(Cc3c[nH]c4ccccc34)nc2-c2ccccc2)cc1` [Compound 36, 3-((6-(4-(Methylsulfonyl)phenyl)-5-phenyl-1,2,4-triazin-3-yl)methyl)-1H-indole] was run?
**A.** 6.18 ± 0.04

**Q.** With `CC(=O)OCc1ccc(-c2nc(Cc3c[nH]c4ccccc34)nnc2-c2ccccc2)cc1` [Compound 37, 4-(3-((1H-Indol-3-yl)methyl)-6-phenyl-1,2,4-triazin-5-yl)benzyl Acetate] as the compound, how does the “GTPγS (pIC50)” value read?
**A.** 8.30 ± 0.35

**Q.** Which “GTPγS (pIC50)” value does the source give for `CNS(=O)(=O)c1ccc(-c2nc(Cc3c[nH]c4ccccc34)nnc2-c2ccccc2)cc1` [Compound 33, 4-(3-((1H-Indol-3-yl)methyl)-6-phenyl-1,2,4-triazin-5-yl)-N-methylbenzenesulfonamide] here?
**A.** 6.49 ± 0.05

**Q.** Which “GTPγS (pIC50)” value does the source give for “Methyl 3-(3-((1H-Indol-3-yl)methyl)-5-phenyl-1,2,4-triazin-6-yl)benzoate [Compound 53]” here?
**A.** 6.40 ± 0.05

**Q.** How did the “GTPγS (pIC50)” value turn out when `COC(=O)c1ccc(-c2nnc(Cc3c[nH]c4cnccc34)nc2-c2ccccc2)cc1` [Compound 66, Methyl 4-(3-((1H-Pyrrolo[2,3-c]pyridin-3-yl)methyl)-5-phenyl-1,2,4-triazin-6-yl)benzoate] was run?
**A.** 7.02 ± 0.06

**Q.** With `COc1ccc(-c2nnc(Cc3n[nH]c4ccccc34)nc2-c2ccc(OC)cc2)cc1` [Compound 14, 3-((5,6-Bis(4-methoxyphenyl)-1,2,4-triazin-3-yl)methyl)-1H-indazole] as the compound, how does the “GTPγS (pIC50)” value read?
**A.** 6.67 ± 0.03

**Q.** `OCc1ccc(-c2nnc(Cc3c[nH]c4ccccc34)nc2-c2ccccc2)cc1` [Compound 40, (4-(3-((1H-Indol-3-yl)methyl)-5-phenyl-1,2,4-triazin-6-yl)phenyl)methanol] was tested. Which “GTPγS (pIC50)” value did it give?
**A.** 7.76 ± 0.06

**Q.** For `O=C(c1ccc(-c2nnc(Cc3c[nH]c4ccccc34)nc2-c2ccccc2)cc1)N1CCOCC1` [Compound 74, (4-(3-((1H-Indol-3-yl)methyl)-5-phenyl-1,2,4-triazin-6-yl)phenyl)(morpholino)methanone], which “GTPγS (pIC50)” value is on record?
**A.** 7.19 ± 0.07

**Q.** How did the “GTPγS (pIC50)” value turn out when `c1ccc(-c2nnc(Cc3c[nH]c4ccccc34)nc2-c2ccc(CN3CCOCC3)cc2)cc1` [Compound 41, 4-(4-(3-((1H-Indol-3-yl)methyl)-6-phenyl-1,2,4-triazin-5-yl)benzyl)morpholine] was run?
**A.** 7.51 ± 0.28

**Q.** `c1ccc(-c2nc(Cc3c[nH]c4cnccc34)nnc2-c2cnccn2)cc1` [Compound 60, 3-((5-Phenyl-6-(pyrazin-2-yl)-1,2,4-triazin-3-yl)methyl)-1H-pyrrolo[2,3-c]pyridine] was tested. Which “GTPγS (pIC50)” value did it give?
**A.** 5.91± 0.06

**Q.** `CCCCCc1nnc(-c2ccccc2)c(-c2ccccc2)n1` [Compound 21, 3-Pentyl-5,6-diphenyl-1,2,4-triazine] was tested. Which “GTPγS (pIC50)” value did it give?
**A.** 5.12 ± 0.05

**Q.** With `OCc1ccc(-c2nc(Cc3c[nH]c4ccccc34)nnc2-c2ccccc2)cc1` [Compound 39, (4-(3-((1H-Indol-3-yl)methyl)-6-phenyl-1,2,4-triazin-5-yl)phenyl)methanol] as the compound, how does the “GTPγS (pIC50)” value read?
**A.** 7.16 ± 0.04

**Q.** How did the “GTPγS (pIC50)” value turn out when `O=C(O)c1ccc(-c2nnc(Cc3c[nH]c4ccccc34)nc2-c2ccccc2)cc1` [Compound 52, 4-(3-((1H-Indol-3-yl)methyl)-5-phenyl-1,2,4-triazin-6-yl)benzoic Acid] was run?
**A.** 7.06 ± 0.22

**Q.** Which “GTPγS (pIC50)” value does the source give for `CC(=O)NCc1ccc(-c2nc(Cc3c[nH]c4ccccc34)nnc2-c2ccccc2)cc1` [Compound 45, N-(4-(3-((1H-Indol-3-yl)methyl)-6-phenyl-1,2,4-triazin-5-yl)benzyl)acetamide] here?
**A.** 6.93 ± 0.06

**Q.** `c1ccc(-c2nnc(Cc3c[nH]c4ccccc34)nc2-c2ccccn2)nc1` [Compound 8, 3-((5,6-Di(pyridin-2-yl)-1,2,4-triazin-3-yl)methyl)-1H-indole] was tested. Which “GTPγS (pIC50)” value did it give?
**A.** 5.70 ± 0.21

**Q.** For `CNC(=O)c1ccc(-c2nnc(Cc3c[nH]c4ccncc34)nc2-c2ccccc2)cc1` [Compound 72, 4-(3-((1H-Pyrrolo[3,2-c]pyridin-3-yl)methyl)-5-phenyl-1,2,4-triazin-6-yl)-N-methylbenzamide], which “GTPγS (pIC50)” value is on record?
**A.** 6.35 ± 0.06
